Where “and” joins values, the source holds several entries; their conditions need not be identical. Equal entries are not always repeated.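 Interpolation was linear, between the two tested concentrations surrounding the appropriate level; five concentrations were tested over 48 hours in 96-well plates. GI50 marks 50% less growth. Definition used: TGI = concentration required for complete inhibition of growth.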
What was measured:
Assay in all cases: NCI-60 cell line screen, 48 h
U251 CNS = test system: U251 CNS
SN12C renal = test system: SN12C renal
HL-60(TB) leukemia = test system: HL-60(TB) leukemia
SW-620 colon = test system: SW-620 colon
MALME-3M melanoma = test system: MALME-3M melanoma
CCRF-CEM leukemia = test system: CCRF-CEM leukemia
EKVX NSCLC = test system: EKVX NSCLC
SF-539 CNS = test system: SF-539 CNS
A498 renal = test system: A498 renal
NCI-H226 lung = test system: NCI-H226 lung
NCI-H460 lung = test system: NCI-H460 lung
BT-549 breast = test system: BT-549 breast
786-0 renal = test system: 786-0 renal

Row | SMILES | TGI (U251 CNS) | TGI (SN12C renal) [µM] | TGI (HL-60(TB) leukemia) [µM] | TGI (SW-620 colon) | TGI (MALME-3M melanoma) | TGI (CCRF-CEM leukemia) [µM] | TGI (EKVX NSCLC) | TGI (SF-539 CNS) [µM] | TGI (A498 renal) | TGI (NCI-H226 lung) [µM] | TGI (NCI-H460 lung) | GI50 (U251 CNS) [µM] | GI50 (HL-60(TB) leukemia) | GI50 (SW-620 colon) | GI50 (MALME-3M melanoma) [µM] | GI50 (EKVX NSCLC) | GI50 (A498 renal) | GI50 (NCI-H460 lung) [µM] | TGI (BT-549 breast) [µM] | TGI (786-0 renal) [µM]
1 | CN1C(=O)c2ccccc2NC(=O)c2cnn(C)c21 | > 100 µM | > 100 | > 100 | > 100 µM | > 100 µM | > 100 | > 100 µM | > 100 | > 100 µM | > 100 | > 100 µM | – | – | – | – | – | – | – | – | –
2 | CC1=C(C)C(=O)O[C@@H]([C@](C)(O)[C@]2(O)CC[C@@]3(O)[C@@H]4C[C@H]5O[C@]56[C@@H](O)C=CC(=O)[C@]6(C)[C@H]4CC[C@]23C)C1 | 6.71 µM and 6.54 µM | 6.59 | – | 0.787 µM and 0.574 µM | 2.27 µM and 2.66 µM | – | 3.36 µM and 1.76 µM | 6.13 | 11.1 µM and 2.08 µM | 22 | 9.22 µM and 9.66 µM | 2.51 | 0.0665 µM and 0.053 µM | 0.266 µM and 0.0856 µM | 0.411 | 2.5 µM and 0.404 µM | 1.12 µM and 0.376 µM | 2 | – | –
3 | S=C1SC(=Nc2ccccc2)C(=Nc2ccccc2)N1c1ccccc1 | > 100 µM | > 100 | – | – | > 100 µM | > 100 | – | – | > 100 µM | > 100 | > 100 µM | – | – | – | – | – | – | – | > 100 | –
4 | O=C(O)CNC(=O)CO/N=C1/C(c2c(O)[nH]c3ccccc23)=Nc2ccccc21 | > 100 µM | > 100 | > 100 | > 100 µM | > 100 µM | > 100 | > 100 µM | > 100 | – | > 100 | > 100 µM | – | – | – | – | – | – | – | > 100 | > 100
5 | COCO[C@@H]1C[C@H]2C(O)Nc3ccccc3C(=O)N2C1 (some centres not stated) | > 100 µM | – | > 100 | > 100 µM | – | > 100 | > 100 µM | > 100 | > 100 µM | > 100 | > 100 µM | – | – | – | – | – | – | – | – | –
6 | CCSc1nc(N)c2c(-c3ccc(OC)c(OC)c3)c3c(nc2n1)CCCC3 | > 100 µM | > 100 | > 100 | > 100 µM | > 100 µM | > 100 | > 100 µM | > 100 | – | – | > 100 µM | – | – | – | – | – | – | – | > 100 | –
7 | CCC(=O)Nc1ccc(N=Cc2cccc(Oc3ccccc3)c2)cc1 | – | > 100 | 63 | > 100 µM | > 100 µM | 63.9 | > 100 µM | 35.9 | > 100 µM | > 100 | – | – | – | – | – | – | – | – | > 100 | > 100
8 | COCc1nc2c(OC)cc(-c3nc4nc(N5CCN(C)CC5)ccc4[nH]3)c(OC)c2[nH]1 | > 100 µM | > 100 | > 100 | > 100 µM | 44.2 µM | 75.9 | > 100 µM | – | > 100 µM | > 100 | > 100 µM | – | – | – | – | – | – | – | > 100 | > 100
9 | Cc1cc(NC(=S)Nc2ccccc2)c(NC(=S)Nc2ccccc2)cc1C | > 63.4 µM | > 100 | 5.23 | > 100 µM | > 100 µM | > 74.9 | > 100 µM | 50.6 | 98.3 µM | > 100 | > 61.7 µM | – | – | – | – | – | – | – | – | –
10 | CC(C)=CC1C(COC(=O)c2cc3c(cc2Cl)OCO3)C1(C)C (configuration not stated) | 86 µM | > 100 | 47.6 | > 100 µM | 41.6 µM | > 100 | > 100 µM | – | 90.6 µM | 91.2 | > 100 µM | – | – | – | – | – | – | – | 81.8 | > 100
11 | COC(=O)CCC(=O)CC(=O)C1=NS(=O)(=O)c2nc(S(N)(=O)=O)c(Cl)cc2N1 | > 100 µM | > 100 | > 100 | – | > 100 µM | > 100 | > 100 µM | > 100 | > 100 µM | > 100 | > 100 µM | – | – | – | – | – | – | – | – | –
12 | CC1C(=O)OC2CC[N+]3(CC(=O)c4ccc(Br)cc4)CC=C(COC(=O)C(C)(O)C1(C)O)C23 (configuration not stated) | > 375 µM | > 375 | > 375 | > 375 µM | > 375 µM | > 375 | > 375 µM | > 375 | > 375 µM | > 375 | > 375 µM | – | – | – | – | – | – | – | – | –
13 | CC1=NN(c2cccc(Cl)c2)C2(SCC(=O)N2c2nc3ccccc3s2)/C1=C\c1ccc(Cl)cc1 (configuration not stated) | 28.2 µM | – | 24.3 | 27.9 µM | – | 3.31 | > 100 µM | 89.6 | 40.2 µM | 75.1 | 33.3 µM | – | – | – | – | – | – | – | – | 48.1
14 | Nc1ccccc1CCCC(=O)O | > 100 µM | > 100 | > 100 | > 100 µM | > 100 µM | > 100 | – | > 100 | > 100 µM | > 100 | > 100 µM | – | – | – | – | – | – | – | > 100 | > 100
15 | Cn1c2ccccc2c2c(-c3ccccc3)[n+]3ccccc3nc21 | 64.7 µM | 61.6 | 66.6 | 86.9 µM | 41.6 µM | 99.8 | > 100 µM | > 100 | > 100 µM | – | 59.6 µM | – | – | – | – | – | – | – | 54.7 | 65.4
16 | CN(C)c1ccc(/C=C2/SC(=S)NC2=O)cc1 | > 100 µM | > 100 | > 100 | > 100 µM | > 100 µM | > 100 | > 100 µM | > 100 | > 100 µM | > 100 | > 100 µM | – | – | – | – | – | – | – | > 100 | > 100
17 | O=C1C=CC2(O[C@H](c3ccccc3)[C@@H](c3ccccc3)O2)C(SC(=O)c2ccccc2)C1 (some centres not stated) | 2.9 µM | 6.42 | 7.7 | 0.811 µM | 6.54 µM | – | – | 3.29 | 20.6 µM | 4.32 | 15.6 µM | – | – | – | – | – | – | – | 1.65 | 1.76
18 | O=C(O)CCCCCCC[C@@H]1S[C@H]1CCCCCCO | > 100 µM | > 100 | > 100 | > 100 µM | > 100 µM | > 100 | > 100 µM | > 100 | > 100 µM | > 100 | > 100 µM | – | – | – | – | – | – | – | – | –
19 | C[n+]1c2ccccc2c(CNc2ccc(S(=O)(=O)N=C(N)N)cc2)c2ccccc21 | – | 27.8 | 7.47 | 56.8 µM | 63.1 µM | 7.16 | 64.1 µM | 17 | 86.2 µM | 10.9 | 15 µM | – | – | – | – | – | – | – | – | 43.4
20 | COc1cc2c(cc1OCCCOc1cc(-c3ccc(F)cc3)nc(C)n1)N=C[C@@H]1CCCN1C2=O | 28.7 µM | 32.3 | 54.1 | 64 µM | 27.3 µM | 53.9 | 39.3 µM | 48.7 | 26.4 µM | 30.5 | > 100 µM | – | – | – | – | – | – | – | – | 31.5
21 | CC(C)(C)NCc1cc(Nc2ccnc3cc(Cl)ccc23)cc(-c2ccc(Cl)cc2)c1O | 8.65 µM | 8.9 | 4.01 | 5.3 µM | 3.28 µM | 5.77 | 14.8 µM | 3.28 | 11.5 µM | 22.3 | 8.18 µM | – | – | – | – | – | – | – | – | 3.98
22 | COc1cc(O)cc(/C=C/c2ccc(O)cc2)c1 | 81.4 µM | 77.8 | > 100 | > 100 µM | > 100 µM | – | 94.1 µM | > 100 | 94.3 µM | 63.1 | > 100 µM | – | – | – | – | – | – | – | 39.6 | > 100
23 | Cc1ccc(CC(=O)Nc2ccc(NC(=O)/C=C/NC(=O)/C=C/c3ccc(-c4ccccc4)cc3)cc2C(=O)c2ccccc2)cc1 | 4.35 µM | 5.51 | 54.4 | 3.44 µM | 11.5 µM | 8.84 | 3.58 µM | 3.67 | 5.31 µM | 6.15 | 4.6 µM | – | – | – | – | – | – | – | 3.11 | 3.34
